Assay results: PMC5520492, “Inhibition of DNA2 nuclease as a therapeutic strategy targeting replication stress in cancer cells” (Oncogenesis, 2017)

Legend:
FANCD2−/− cells = assay: Colony formation with cisplatin in FANCD2-deficient cells; assay type: cell-based; details: cisplatin 0.3125 µM, NSC-105808 […]
Description: Figure 4 NSC-105808 inhibits HR repair and DSB end resection. (a) Analysis of HR efficiency with the DR-green fluorescent protein (GFP) assay. Representative images of flow cytometry analysis and bar graph showing percentage of GFP cells from at least three independent experiments. Each value represents the mean±s.d. (b, c) Analysis of RPA phosphorylation in U2OS cells treated with NSC-105808 (2 h, 0.3 μM) and/or camptothecin (CPT; 2 h, 1 μM). (b) Representative images of cells subjected to immunofluorescent staining of p-RPA and bar graph showing percentage of cells with positive p-RPA staining from three independent experiments. Each value represents the mean±s.d. (c) Western blot analysis of chromatin fraction with the indicated antibodies. (d) Analysis of colony formation by FANCD2 (+/+) and FANCD2 (−/−) cells treated with cisplatin and/or NSC-105808. Each value is relative to the untreated control group of each cell line. The graph represents the mean±s.e.m. from three independent experiments. *P<0.01.
DNA2 knockdown cells were seeded at low density; cells were then left for 2 weeks to allow colonies to form. Cells were stained with 2% methylene blue/50% ethanol, and colonies containing 50 or more cells were counted. […] Colonies were fixed, stained, and scored ten days after treatment.

Bloom syndrome (BLM) = target: T1, Bloom syndrome (BLM) (Homo sapiens, UniProt P54132); assay: dsDNA unwinding by BLM; assay type: biochemical; details: 10 µM
T1 construct: made in house
T1 sequence (P54132 whole entry): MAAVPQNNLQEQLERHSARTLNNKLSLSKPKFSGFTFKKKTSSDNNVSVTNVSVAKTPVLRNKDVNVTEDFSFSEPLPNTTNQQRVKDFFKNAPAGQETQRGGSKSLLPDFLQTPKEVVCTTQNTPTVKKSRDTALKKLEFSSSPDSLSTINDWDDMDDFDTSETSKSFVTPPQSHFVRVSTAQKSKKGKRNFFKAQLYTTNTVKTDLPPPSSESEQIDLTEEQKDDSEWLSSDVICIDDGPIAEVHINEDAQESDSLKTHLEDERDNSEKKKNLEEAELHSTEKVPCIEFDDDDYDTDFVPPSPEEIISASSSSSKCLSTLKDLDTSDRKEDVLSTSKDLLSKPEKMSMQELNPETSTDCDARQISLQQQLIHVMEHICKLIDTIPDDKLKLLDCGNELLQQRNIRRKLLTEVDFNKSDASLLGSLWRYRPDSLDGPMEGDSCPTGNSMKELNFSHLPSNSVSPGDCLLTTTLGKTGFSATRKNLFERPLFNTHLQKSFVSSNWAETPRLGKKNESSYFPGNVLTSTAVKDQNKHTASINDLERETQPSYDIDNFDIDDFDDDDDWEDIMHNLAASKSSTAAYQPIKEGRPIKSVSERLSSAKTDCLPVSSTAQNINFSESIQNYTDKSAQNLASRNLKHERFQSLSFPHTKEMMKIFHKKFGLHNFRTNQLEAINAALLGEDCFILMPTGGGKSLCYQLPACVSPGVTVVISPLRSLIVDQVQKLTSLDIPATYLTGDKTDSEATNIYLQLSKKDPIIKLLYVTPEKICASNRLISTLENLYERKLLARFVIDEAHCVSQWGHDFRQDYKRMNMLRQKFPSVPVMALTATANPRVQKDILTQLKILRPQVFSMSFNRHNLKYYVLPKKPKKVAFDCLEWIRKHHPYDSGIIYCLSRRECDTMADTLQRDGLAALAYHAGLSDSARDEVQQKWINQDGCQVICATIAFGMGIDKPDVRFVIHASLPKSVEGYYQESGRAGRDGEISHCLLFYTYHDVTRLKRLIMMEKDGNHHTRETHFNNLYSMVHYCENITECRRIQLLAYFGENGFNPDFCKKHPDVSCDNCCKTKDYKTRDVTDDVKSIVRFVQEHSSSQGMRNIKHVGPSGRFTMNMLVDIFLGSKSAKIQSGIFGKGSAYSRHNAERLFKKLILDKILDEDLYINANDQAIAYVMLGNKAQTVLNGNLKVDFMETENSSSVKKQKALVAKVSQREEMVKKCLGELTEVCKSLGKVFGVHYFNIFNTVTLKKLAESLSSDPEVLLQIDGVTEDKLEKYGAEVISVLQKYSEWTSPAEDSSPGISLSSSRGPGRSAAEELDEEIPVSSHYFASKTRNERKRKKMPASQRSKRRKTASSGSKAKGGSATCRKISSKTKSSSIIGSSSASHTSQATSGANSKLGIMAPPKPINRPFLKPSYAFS
Description: Figure S2. […] (a) Analysis of 5’ flap processing by hDNA2 in presence of the compounds at the indicated concentration. DNA2 (2.5 nM) was incubated with the Y DNA substrate (5 nM ends) and the indicated concentration of inhibitor. (b) Plots showing quantitation of the experiments shown in a. Plotted are the average data from three independent experiments with the error bars representing one standard deviation. (c) Analysis of dsDNA unwinding by BLM. BLM (4, 8 and 16 nM), RPA (100 nM) and internally radiolabelled dsDNA (0.5 nM ends) was incubated for 20 min at 37^ºC in presence of either DMSO or NSC-105808 (10 µM) and the products were resolved on a 1% agarose gel. (d) Plots showing quantitation of the experiments shown in c. Plotted are the average data from three independent experiments with the error bars representing one standard deviation. (e) Analysis of the degradation of a 2 kb internally labeled dsDNA (0.5 nM ends) by EXO1 (5 nM) in presence of NSC-105808 (10 µM). (f) Plot showing quantitation of the experiment in e. […] 100 nM hDNA2 was incubated with γ^32P-ATP in the presence of oligonucleotide ssDNA (200 nM) for 20 minutes at 37^ºC in presence of either DMSO or inhibitor (10 µM) and the products were resolved on a TLC plate. (h) Analysis of hDNA2 binding to DNA. […]

U2OS cells = assay: Cell cycle distribution (BrdU, flow cytometry); assay type: cell-based, human; details: highest tested concentration 0.6 μM, 24 h; slight decrease of G1, increase of G2
Description: Apoptosis was measured by flow cytometry using the Annexin V FITC assay kit based on the protocol from the manufacturer (Invitrogen). For BrdU (bromodeoxyuridine (5-bromo-2′-deoxyuridine)) analysis, after treatments, cells were labeled with BrdU (Sigma) for 30 min before fixation with 70% cold ethanol (−20 °C). The next day, cells were washed with cold phosphate-buffered saline and incubated with 2 M HCl for 5 min at room temperature. After adjusting the pH with 0.1 M sodium borate (pH 8.5), cells were incubated in 1% bovine serum albumin with 0.1% Triton X-100 for 30 min and mouse anti-BrdU antibody (1:400) for 1 h to detect BrdU labeling. After washing, cells were incubated with secondary antibody (fluorescein isothiocyanate 1:400) for 30 min. […] For fluorescence-activated cell sorting analysis, the percentage of cells with positive BrdU staining in each phase of the cell cycle was quantitated with the CellQuest software and ModFit software (Verity Software House Inc., Topsham, ME, USA).
Figure S7: Cell cycle distribution of U2OS cells upon treatment with NSC-105808. (a) U2OS cells were treated with DMSO or the indicated concentration of NSC-105808 for 24 hrs followed by a pulse of BrdU (10 µM) for 30 minutes and then analyzed by flow cytometry. […] (c) Quantitation of the G1 cell population. […]

[1] = test system: AsPC-1, PANC-1 versus DT-PD59 cells; assay: MTT proliferation, pancreatic cell lines; assay type: cell-based, human; details: 48-h treatment
Description: Figure 5 Oncogene induction enhances sensitivity of cancer cells to NSC-105808. (a-e) Graphs showing proliferation of indicated cell lines in response to a 48-h treatment with the indicated concentrations of NSC-105808. Proliferation relative to cells treated with vehicle alone was determined by the 3-(4,5-dimethylthiazol-2-yl)-2,5-diphenyltetrazolium bromide (MTT) assay. Each value represents the mean±s.e.m. from three independent experiments. (a) Proliferation of control pancreatic epithelial cells DT-PD59 and transformed pancreatic cancer cells AsPC-1 and PANC-1. (b) Proliferation of normal breast epithelial cells MCF10A and breast cancer cells Hs578T and BT549. (c) Proliferation of MCF10A cells with or without H-Ras expression. H-Ras was induced with doxycycline (2 μg/ml). […]
Cell proliferation was measured by 3-(4,5-dimethylthiazol-2-yl)-2,5-diphenyltetrazolium bromide (Sigma) reduction (Supplementary Materials and Methods).
To determine the cell proliferation rate, 1000 cells/well were seeded in a 96-well plate in a total volume of 100 µl in triplicate in each experiment. […] Plates were read at 490 nm and 650 nm (background) in a
microplate reader (Molecular Devices). After the subtraction of background, cell viability was calculated as fold change relative to control cells.

Which “Cisplatin sensitivity of FANCD2−/− cells (colony formation)” value (FANCD2−/− cells) does the source give for `NC1=C(Br)C(=O)c2ncccc2C1=O` [NSC-105808, 6-amino-7-bromoquinoline-5,8-dione] here?
Its value is “lessened the cisplatin sensitivity”.

And the “Effect on ability of Bloom syndrome to unwind DNA” value (Bloom syndrome (BLM))?
Its value is “no effect”.

And the “Impact on cell cycle distribution” value (U2OS cells)?
The value was “only a mild impact”.

And the “Sensitivity of transformed pancreatic cancer cell lines compared with non-transformed DT-PD59” value [1]?
Its value is “more sensitive”.
